Experimental data as given in patent US4112228A, “7-(D-α-Hydroxy-2-arylacetamido)-3-(2-carboxyalkyl-2,3-dihydro-s-tri azolo-[4,3-b]pyridazin-3-on-6-ylthiomethyl)-3-cephem-4-carboxylic acids and derivatives” (priority 1977, dated 1978).
Values after ≈ are worked out from the molar mass of the structure shown. Like-named read-outs stand apart in the source and are kept apart here.

Experiments:
Assay in all cases: MIC by Steers' agar dilution method
Sal. enteritidis = conditions: Salmonella enterica
Shig. dysenteriae = conditions: Shigella dysenteriae, MHA
Enterob. cloacae = test system: Enterob. cloacae
D. pneumoniae = test system: D. pneumoniae
E. coli = assay type: cell-based; conditions: Escherichia coli

With Cn1nnnc1SCC1=C(C(=O)O)N2C(=O)[C@@H](NC(=O)[C@H](O)c3ccccc3)[C@H]2SC1 [Cefamandole, cefamandole, reference compound] the MIC (Sal. enteritidis; A9531, MHA, Table 1) was 0.1 µg/mL (≈ 0.216 µM), the MIC (Sal. enteritidis; MHA, Example 10) was 0.05 µg/mL (≈ 0.108 µM) and the MIC (Sal. enteritidis; Se-1 A9531, MHA, Table 3) was 0.2 µg/mL (≈ 0.432 µM). The MIC (Shig. dysenteriae; Example 10) was 0.1 µg/mL (≈ 0.216 µM), the MIC (Shig. dysenteriae; Table 1) was 0.1 µg/mL (≈ 0.216 µM) and the MIC (Shig. dysenteriae; Sd-1, Table 3) was 0.2 µg/mL (≈ 0.432 µM). For the same molecule, the MIC (Enterob. cloacae; A9656, MHA, Table 1) was 3.1 µg/mL (≈ 6.7 µM), the MIC (Enterob. cloacae; El-1 A9656, HIA, Table 4) was 3.1 µg/mL (≈ 6.7 µM) and the MIC (Enterob. cloacae; El-1 A9656, MHA, Table 3) was 3.1 µg/mL (≈ 6.7 µM). It also gave an MIC (Enterob. cloacae; El-1 A9656, MHA, Table 4) of 3.1 µg/mL (≈ 6.7 µM), an MIC (Enterob. cloacae; El-1 A9656, NA, Table 4) of 6.3 µg/mL (≈ 13.6 µM) and an MIC (Enterob. cloacae; El-2 A20364 (β-lactamase), HIA, Table 4) of 100 µg/mL (≈ 216 µM). The MIC (Enterob. cloacae; El-2 A20364 (β-lactamase), MHA, Table 4) was 50 µg/mL (≈ 108 µM), the MIC (Enterob. cloacae; El-2 A20364 (β-lactamase), NA, Table 4) was 6.3 µg/mL (≈ 13.6 µM) and the MIC (Enterob. cloacae; El-2 A20364, MHA, Table 3) was 3.1 µg/mL (≈ 6.7 µM). It also gave an MIC (Enterob. cloacae; El-4 A20650, MHA, Table 3) of 1.6 µg/mL (≈ 3.46 µM), an MIC (Enterob. cloacae; El-6 A9657, MHA, Table 3) of 0.8 µg/mL (≈ 1.73 µM) and an MIC (Enterob. cloacae; El-7 A9659, MHA, Table 3) of 0.8 µg/mL (≈ 1.73 µM). The MIC (Enterob. cloacae; El-8 A9655, MHA, Table 3) was 1.6 µg/mL (≈ 3.46 µM), the MIC (Enterob. cloacae; El-9 A20021, MHA, Table 3) was 100 µg/mL (≈ 216 µM) and the MIC (Enterob. cloacae; El-11 A20344 (β-lactamase), HIA, Table 4) was greater than 100 µg/mL. For the same molecule, the MIC (Enterob. cloacae; El-11 A20344 (β-lactamase), MHA, Table 4) was greater than 100 µg/mL, the MIC (Enterob. cloacae; El-11 A20344 (β-lactamase), NA, Table 4) was greater than 100 µg/mL and the MIC (Enterob. cloacae; El-11 A20344, MHA, Table 3) was greater than 100 µg/mL. For the same molecule, the MIC (Enterob. cloacae; El-12 A21006, MHA, Table 3) was 3.1 µg/mL (≈ 6.7 µM), the MIC (Enterob. cloacae; El-14 A20953, MHA, Table 3) was 3.1 µg/mL (≈ 6.7 µM) and the MIC (Enterob. cloacae; MHA, Example 10) was 3.1 µg/mL (≈ 6.7 µM). It also gave an MIC (D. pneumoniae; Dp-2 Type I Neufeld, MHA, Table 2) of 0.2 µg/mL (≈ 0.432 µM), an MIC (D. pneumoniae; Dp-3 Type III, MHA, Table 2) of 0.2 µg/mL (≈ 0.432 µM) and an MIC (D. pneumoniae; Dp-4 A9585, MHA, Table 2) of 0.2 µg/mL (≈ 0.432 µM). It also gave an MIC (D. pneumoniae; Dp-5 A15069, MHA, Table 2) of 0.2 µg/mL (≈ 0.432 µM), an MIC (D. pneumoniae; Dp-6 A20167, MHA, Table 2) of 0.2 µg/mL (≈ 0.432 µM) and an MIC (D. pneumoniae; Dp-7 A20759, MHA, Table 2) of 0.2 µg/mL (≈ 0.432 µM). The MIC (D. pneumoniae; Dp-8 A20769, MHA, Table 2) was 0.2 µg/mL (≈ 0.432 µM), the MIC (D. pneumoniae; Dp-9 A20770, MHA, Table 2) was 0.2 µg/mL (≈ 0.432 µM) and the MIC (D. pneumoniae; Streptococcus pneumoniae) was 0.2 µg/mL (≈ 0.432 µM). It also gave an MIC (E. coli; A9660, MHA, Table 1, read-out: MIC) of 0.1 µg/mL (≈ 0.216 µM), an MIC (E. coli; A15147, MHA, Table 1, read-out: MIC) of 0.4 µg/mL (≈ 0.865 µM) and an MIC (E. coli; A15810, MHA, Table 1, read-out: MIC) of 0.4 µg/mL (≈ 0.865 µM). It also gave an MIC (E. coli; ATCC8739, ATCC 8739, MHA, Example 10) of 3.1 µg/mL (≈ 6.7 µM), an MIC (E. coli; ATCC8739, ATCC 8739, MHA, Table 1, read-out: MIC) of 0.05 µg/mL (≈ 0.108 µM) and an MIC (E. coli; ATCC8739, Ec-15 ATCC 8739, HIA, Table 4, read-out: MIC) of 0.1 µg/mL (≈ 0.216 µM). The MIC (E. coli; ATCC8739, Ec-15 ATCC 8739, MHA, Table 3, read-out: MIC) was 0.1 µg/mL (≈ 0.216 µM), the MIC (E. coli; ATCC8739, Ec-15 ATCC 8739, MHA, Table 4, read-out: MIC) was 0.1 µg/mL (≈ 0.216 µM) and the MIC (E. coli; ATCC8739, Ec-15 ATCC 8739, NA, Table 4, read-out: MIC) was 0.1 µg/mL (≈ 0.216 µM). For the same molecule, the MIC (E. coli; BX-1373, MHA, Example 10, read-out: MIC) was 3.1 µg/mL (≈ 6.7 µM), the MIC (E. coli; BX-1373, MHA, Table 1, read-out: MIC) was 0.8 µg/mL (≈ 1.73 µM) and the MIC (E. coli; Ec-1 NIHJ, HIA, Table 4, read-out: MIC) was 0.1 µg/mL (≈ 0.216 µM). It also gave an MIC (E. coli; Ec-1 NIHJ, MHA, Table 3, read-out: MIC) of 0.1 µg/mL (≈ 0.216 µM), an MIC (E. coli; Ec-1 NIHJ, MHA, Table 4, read-out: MIC) of 0.05 µg/mL (≈ 0.108 µM) and an MIC (E. coli; Ec-1 NIHJ, NA, Table 4, read-out: MIC) of 0.1 µg/mL (≈ 0.216 µM). It also gave an MIC (E. coli; Ec-3 Juhl A15119, HIA, Table 4, read-out: MIC) of 0.4 µg/mL (≈ 0.865 µM), an MIC (E. coli; Ec-3 Juhl A15119, MHA, Table 3, read-out: MIC) of 0.8 µg/mL (≈ 1.73 µM) and an MIC (E. coli; Ec-3 Juhl A15119, MHA, Table 4, read-out: MIC) of 0.4 µg/mL (≈ 0.865 µM). It also gave an MIC (E. coli; Ec-3 Juhl A15119, NA, Table 4, read-out: MIC) of 0.2 µg/mL (≈ 0.432 µM), an MIC (E. coli; Ec-4 A15169, MHA, Table 3, read-out: MIC) of 6.3 µg/mL (≈ 13.6 µM) and an MIC (E. coli; Ec-5 K-12, ML-1630 A20363, MHA, Table 3, read-out: MIC) of 0.8 µg/mL (≈ 1.73 µM). It also gave an MIC (E. coli; Ec-11 A20366 (β-lactamase), HIA, Table 4, read-out: MIC) of 25 µg/mL (≈ 54.1 µM), an MIC (E. coli; Ec-11 A20366 (β-lactamase), MHA, Table 4, read-out: MIC) of 50 µg/mL (≈ 108 µM) and an MIC (E. coli; Ec-11 A20366 (β-lactamase), NA, Table 4, read-out: MIC) of 50 µg/mL (≈ 108 µM). It also gave an MIC (E. coli; Ec-11 A20366, MHA, Table 3, read-out: MIC) of 25 µg/mL (≈ 54.1 µM), an MIC (E. coli; Ec-34 A9660, MHA, Table 3, read-out: MIC) of 0.1 µg/mL (≈ 0.216 µM) and an MIC (E. coli; Ec-35 A9435, MHA, Table 3, read-out: MIC) of 0.8 µg/mL (≈ 1.73 µM). It also gave an MIC (E. coli; Ec-36 A15147 (β-lactamase), HIA, Table 4, read-out: MIC) of 3.1 µg/mL (≈ 6.7 µM), an MIC (E. coli; Ec-36 A15147 (β-lactamase), MHA, Table 4, read-out: MIC) of 3.1 µg/mL (≈ 6.7 µM) and an MIC (E. coli; Ec-36 A15147 (β-lactamase), NA, Table 4, read-out: MIC) of 1.6 µg/mL (≈ 3.46 µM). For the same molecule, the MIC (E. coli; Ec-36 A15147, MHA, Table 3, read-out: MIC) was 1.6 µg/mL (≈ 3.46 µM), the MIC (E. coli; Ec-40 A20361, MHA, Table 3, read-out: MIC) was 0.8 µg/mL (≈ 1.73 µM) and the MIC (E. coli; Ec-44 A9535, MHA, Table 3, read-out: MIC) was 0.1 µg/mL (≈ 0.216 µM). For the same molecule, the MIC (E. coli; Ec-45 A15148, MHA, Table 3, read-out: MIC) was 1.6 µg/mL (≈ 3.46 µM), the MIC (E. coli; Ec-46 A15164 (β-lactamase), HIA, Table 4, read-out: MIC) was 12.5 µg/mL (≈ 27 µM) and the MIC (E. coli; Ec-46 A15164 (β-lactamase), MHA, Table 4, read-out: MIC) was 12.5 µg/mL (≈ 27 µM). The MIC (E. coli; Ec-46 A15164 (β-lactamase), NA, Table 4, read-out: MIC) was 25 µg/mL (≈ 54.1 µM), the MIC (E. coli; Ec-46 A15164, MHA, Table 3, read-out: MIC) was 12.5 µg/mL (≈ 27 µM) and the MIC (E. coli; Ec-47 A15170, MHA, Table 3, read-out: MIC) was 50 µg/mL (≈ 108 µM). It also gave an MIC (E. coli; Ec-49 A20107, MHA, Table 3, read-out: MIC) of 0.2 µg/mL (≈ 0.432 µM), an MIC (E. coli; Ec-50 A20109, MHA, Table 3, read-out: MIC) of 0.8 µg/mL (≈ 1.73 µM) and an MIC (E. coli; Ec-51 A20343 (β-lactamase), HIA, Table 4, read-out: MIC) of 25 µg/mL (≈ 54.1 µM). For the same molecule, the MIC (E. coli; Ec-51 A20343 (β-lactamase), MHA, Table 4, read-out: MIC) was 25 µg/mL (≈ 54.1 µM), the MIC (E. coli; Ec-51 A20343 (β-lactamase), NA, Table 4, read-out: MIC) was 12.5 µg/mL (≈ 27 µM) and the MIC (E. coli; Ec-51 A20343, MHA, Table 3, read-out: MIC) was 12.5 µg/mL (≈ 27 µM). The MIC (E. coli; Ec-56 A20365, MHA, Table 3, read-out: MIC) was 12.5 µg/mL (≈ 27 µM), the MIC (E. coli; Ec-58 A9675, MHA, Table 3, read-out: MIC) was 1.6 µg/mL (≈ 3.46 µM) and the MIC (E. coli; Ec-59 A20766, MHA, Table 3, read-out: MIC) was 0.8 µg/mL (≈ 1.73 µM). It also gave an MIC (E. coli; Ec-62 A20895, MHA, Table 3, read-out: MIC) of 0.8 µg/mL (≈ 1.73 µM), an MIC (E. coli; Juhl A15119, MHA, Table 1, read-out: MIC) of 0.4 µg/mL (≈ 0.865 µM) and an MIC (E. coli; Juhl, MHA, Example 10, read-out: MIC) of 0.8 µg/mL (≈ 1.73 µM). It also gave an MIC (E. coli; NIHJ, MHA, Example 10, read-out: MIC) of 0.05 µg/mL (≈ 0.108 µM), an MIC (E. coli; NIHJ, MHA, Table 1, read-out: MIC) of 0.025 µg/mL (≈ 0.0541 µM) and an MIC (E. coli; strain not named (1st of 3), MHA, Example 10, read-out: MIC) of 0.1 µg/mL (≈ 0.216 µM). The MIC (E. coli; strain not named (2nd of 3), MHA, Example 10, read-out: MIC) was 0.1 µg/mL (≈ 0.216 µM) and the MIC (E. coli; strain not named (3rd of 3), MHA, Example 10, read-out: MIC) was 1.6 µg/mL (≈ 3.46 µM).
